Results published in patent US20250177341A1, “DIETARY TRIPROPIONIN SUPPLEMENTATION TO REDUCE ADIPOSITY AND IMPROVE GLUCOSE HOMEOSTASIS” (Wisconsin Alumni Research Foundation, priority 2023, published 2025).

Key:
[1] = Experiment 1: high-fat diet supplemented with tripropionin, body weight, food consumption, body composition by NMR; set-up: species or system mice; details: mouse, in vivo
Description: Experiment 1: Male C57BL/6J mice were ordered from Jackson Laboratories (Bar Harbor, ME) maintained on chow (Teklad 8604, Inotiv, Madison, WI) and housed in a chlorinated water rack system in cages with cornhusk bedding and ALPHA-twist™. At 11 weeks of age, the mice were switched to either a glycerol (TD220541) or tripropionin diet (TD220540) from Envigo (Madison, WI) with a sample size of 6 mice per treatment. […] Mice were maintained on their respective diets for an additional 8 weeks and then transferred to single-housed metabolic cages (Promethion Core system, Sable Systems International, North Las Vegas, NV) where body weight food intake and activity level was monitored. During this period, fat and lean mass were monitored using nuclear magnetic resonance (NMR) machine fitted for mice (LF90 Body Composition Analyzer, Bruker Corporation, Billerica, MA). […]

[2] = Experiment 1: oral glucose tolerance test; format: in vivo; details: four weeks after diet change, vs glycerol-fed mice
Description: To assess the effect of tripropionin on adiposity and glucose homeostasis, we fed 11-week-old male C57BL/6J mice a high-fat diet (45% kcal from fat) (HFD) supplemented with either 5.3% tripropionin (w/w) or 5.3% glycerol as a control. Mice were maintained on these diets for 13 weeks, during which food consumption and body weight were measured and an oral glucose tolerance test (OGTT) and insulin tolerance test (ITT) were performed (FIG. 1A). Additionally, body composition was monitored via NMR during the last 2 weeks before sacrifice.
Experiment 1: Male C57BL/6J mice were ordered from Jackson Laboratories (Bar Harbor, ME) maintained on chow (Teklad 8604, Inotiv, Madison, WI) and housed in a chlorinated water rack system in cages with cornhusk bedding and ALPHA-twist™. […] Mice were maintained on their respective diets for an additional 8 weeks and then transferred to single-housed metabolic cages (Promethion Core system, Sable Systems International, North Las Vegas, NV) where body weight food intake and activity level was monitored. During this period, fat and lean mass were monitored using nuclear magnetic resonance (NMR) machine fitted for mice (LF90 Body Composition Analyzer, Bruker Corporation, Billerica, MA). […]
Prior to OGTT, mice were placed in fresh cages fasted for 4 hours. […] Blood glucose levels were measured at regular intervals between 15 and 120 minutes.

[3] = Experiment 1: insulin tolerance test; set-up: species or system mice; details: mouse, in vivo
Description: Experiment 1: Male C57BL/6J mice were ordered from Jackson Laboratories (Bar Harbor, ME) maintained on chow (Teklad 8604, Inotiv, Madison, WI) and housed in a chlorinated water rack system in cages with cornhusk bedding and ALPHA-twist™. At 11 weeks of age, the mice were switched to either a glycerol (TD220541) or tripropionin diet (TD220540) from Envigo (Madison, WI) with a sample size of 6 mice per treatment. […] One week later, mice were subjected to an ITT. […] Mice were sacrificed at 24 weeks of age.
The ITT was performed one week after the OGTT. Mice were fasted for 4 hours in fresh cages and baseline blood glucose levels were taken from tail blood. Insulin was administered at a rate of 0.75 IU per Kg body weight via IP injection. Blood glucose levels were monitored as described for OGTT. Insulin tolerance curves are expressed as the relative ratio of blood glucose from the baseline.

[4] = Experiment 2: obese HFD-fed mice switched to tripropionin diet, body weight and body composition; details: mouse, in vivo
Description: (§1) We next tested the anti-adipogenic effects of tripropionin in metabolically challenged mice. To do this, we fed a HFD for 10 weeks to induce insulin resistance and obesity and then switched mice to either the tripropionin or glycerol diet for 5 weeks (FIG. 2A). […] Mice were monitored in metabolic cages to measure respiratory quotient (RQ) for the initial 48 hours after diet change.
(§2) Experiment 2: Male C57BL/6J mice were ordered from Jackson Laboratories (Bar Harbor, ME) maintained on a chow diet and housed in a chlorinated water rack system. Mice were switched to the HFD and maintained on this diet for 10 weeks at which point mice were fed either the glycerol or the tripropionin diets (n=6 mice per group). Mice were transferred to singly housed metabolic cages, as described above, to measure respiratory quotient, body weight, food intake, and energy expenditure. Five weeks after diet change mice underwent an OGTT and then an ITT one week later.

[5] = Experiment 2: respiratory quotient in metabolic cages; set-up: species or system mice; details: mouse, in vivo
Description: as §1, §2

[6] = Experiment 3: gnotobiotic mice colonized with human fecal microbiota, body weight; details: mouse, in vivo
Description: To check whether the effects of tripropionin supplementation are consistent in the context of a human microbiome, we used a gnotobiotic mouse model colonized with human fecal microbiota. We colonized germ-free mice with a complex community of human fecal microbiota, induced metabolic dysregulation though feeding a high-fat diet for 8 weeks, and subjected the mice to a tripropionin- or glycerol-supplemented diet (FIG. 3A).
At 5 and 6 weeks of age mice were placed in Allentown Sentry SPP IVC rack system (Allentown Inc., Allentown, NJ) and fed a HFD (TD08811, Envigo). Mice were then colonized with fecal microbiota from a human donor fecal specimen via gavage with a fecal slurry. The fecal slurry was prepared by collecting 200-500 mg of frozen feces and adding it to anaerobic CMM broth in an anaerobic chamber. The mixture was vortexed for 1 minute and then placed on ice until gavaging (less than 1 hour after preparation). Mice were maintained on the HFD for an additional 6 weeks before being switched to either the glycerol or tripropionin diets (n=4-5 per group). Four weeks after diet change mice were subjected to an OGTT followed by an ITT a week later. Mice were euthanized one week after ITT.

[7] = Experiment 3: insulin tolerance test in humanized gnotobiotic mice; details: mouse, in vivo
Description: We colonized germ-free mice with a complex community of human fecal microbiota, induced metabolic dysregulation though feeding a high-fat diet for 8 weeks, and subjected the mice to a tripropionin- or glycerol-supplemented diet (FIG. 3A).
Experiment 3: Germ-free (GF) male mice (C57BL/6J) were housed in sterile isolators and maintained on autoclaved chow (LabDiet 5021; LabDiet, St. Louis, MO) and sterile water ad libitum. GF cages contained Alpha-dri® (Shepherd Specialty Papers, Kalamazoo, MI) bedding along with paper huts (Bio-Huts, Bio-Serv, Flemington, NJ) and ALPHA-twist™ (Shepherd Specialty Papers) for enrichment. Monthly tests were conducted in each isolator to confirm GF status of the mice. These included a growth test of feces in rich media for 7 days at 37° C. and checking for amplification of the 16S rRNA gene using universal primers. At 5 and 6 weeks of age mice were placed in Allentown Sentry SPP IVC rack system (Allentown Inc., Allentown, NJ) and fed a HFD (TD08811, Envigo). Mice were then colonized with fecal microbiota from a human donor fecal specimen via gavage with a fecal slurry. […]
The ITT was performed one week after the OGTT. […] Blood glucose levels were monitored as described for OGTT. Insulin tolerance curves are expressed as the relative ratio of blood glucose from the baseline.

CCC(=O)OCC(COC(=O)CC)OC(=O)CC [tripropionin, 2,3-di(propanoyloxy) propyl propanoate]
body weight [1]: significantly reduced body weight | fat mass (NMR) [1]: primarily due to differences in fat mass | glucose tolerance (OGTT) [2]: improved glucose tolerance | insulin sensitivity (ITT) [3]: improved insulin sensitivity | body weight [4]: reduced body weight | fat mass (NMR) [4]: reduction in fat mass | onset of body weight reduction [4]: significant differences observed just three days after the diet change | respiratory quotient (RQ) [5]: reduced | body weight [6]: reduced body weight | insulin sensitivity (ITT) [7]: improved insulin sensitivity
